# Key:
# cells in vitro = conditions: conjugation to branched peptides (loligomers) with nuclear-targeting sequences; cited from earlier work
# [1] = tested on: Pancreatic cells (BxPC-3); assay: phospho-gamma H2AX immunofluorescence assay of DNA damage after 18 MV X-ray irradiation generating Cherenkov light; assay type: cell-based; conditions: BxPC-3 cells, 4 micrograms per ml, 6 h incubation, 10 Gy X-ray, read 30 minutes after irradiation, +/- 1 standard deviation
# Description: Following preparation of the nuclear-targeted copolymer-photosensitizer micelles (NPs) as above, tests were carried out of the effect on pancreatic cancer cells in tissue culture (in vitro) of X-ray irradiation under conditions that generate Cherenkov light. Pancreatic cells (BxPC-3: ATCC, VA, USA) were selected since treatment of pancreatic cancer is one example of how the current invention might be applied to address an unmet clinical need for a minimally invasive therapy for this highly fatal disease where conventional treatments such as radiation or chemotherapy are inadequate.
# Cells were incubated with NPs with water as the vehicle. […]
# At 30 minutes after irradiation, the damage to DNA in the cells was measured using phospho-gamma H2AX immunofluorescence assay, similar to that used for example by Fraser et al. (2012). […] The fluorescence was imaged on a confocal fluorescence microscope where the red fluorescence (488+/−10 nm excitation, >505 nm detection) corresponding to DNA double strand breaks could be visualized on the […] DAPI fluorescence background (405+/−10 nm excitation, 460+/−25 nm detection) and the intensity quantified. The red fluorescence intensity counts were integrated over 10-18 cells for each treatment condition. […]
Compound,reduction of the required dose of photosensitizer by nuclear localization (cells in vitro),Mean fluorescence intensity counts ([1]; Cherenkov blocked (blackout material)),Mean fluorescence intensity counts ([1]; Cherenkov unblocked)
chlorine 6,greater than 100 fold,–,–
"C1=Cc2nc1c(-c1ccccc1)c1nc(c(-c3ccccc3)c3ccc([nH]3)c(-c3ccccc3)c3ccc([nH]3)c2-c2ccccc2)C=C1 [TPP, tetraphenyl porphyrin]",–,54.8 +/− 6.0 counts,49.5 +/− 6.7 counts
